Patent US20250144056A1, “ANTIMICROBIAL HOST DEFENSE PEPTIDE-INDUCING COMPOSITIONS AND METHODS OF PRODUCTION AND USE THEREOF” (Board of Regents for the Oklahoma Agricultural and …, priority 2022, published 2025)
“Also recorded” adds a separate entry of the source.

What was measured:
Type in all cases: cell-based, chicken
AvBD9 mRNA expression = assay: RT-qPCR of AvBD9 mRNA expression in HTC macrophage cells; conditions: for synergy in AvBD9 induction between HMTi and HDACi: with butyrate or mocetinostat, 24 h (FIG. 7, Panel C); for induction of AvBD9 gene expression / increase in AvBD9 expression, combination with mocetinostat: 24 h (FIG. 7, Panel D); for increase in AvBD9 expression, combination with mocetinostat: 5 μM compound in combination with 2.5 μM mocetinostat; for synergy with butyrate in AvBD9 mRNA expression: indicated concentrations in combination with 2 mM butyrate, 24 h (FIG. 4)
Protocol: (§1) Culture and stimulation of macrophages. Two different chicken macrophage cell lines, HTC (24) and HD11 (25), were kindly provided by Dr. Narayan C. Rath and Dr. Hyun Lillehoj of USDA-ARS and maintained in RPMI 1640 containing 10% heat-inactivated FBS, 100 U/ml penicillin, and 100 μg/ml streptomycin and subcultured every 3-4 days. After overnight seeding at 1.5×10^6 cells/well in 6-well cell culture plates, cells were treated with different concentrations of each compound for 24 h or with the indicated concentration of each compound for various lengths of time for dose-response and time-course experiments, respectively. To study the synergy between HMTi/DNMTi and HDACi, different concentrations of an HMTi or DNMTi were added to the cells in the presence or absence of an HDACi for 24 h, followed by RNA isolation and HDP gene expression analysis as described below. HTC cells were also stimulated with butyrate, BIX01294, or their combination for 24 h, followed by 3-h stimulation with 10 ng/ml LPS and subsequent expression analysis.
(§2) Total RNA extraction and gene expression analysis. Total RNA was extracted using RNAzol (Molecular Biology Research Center, Cincinnati, OH) according to the manufacturer's protocol. Gene expression was performed using reverse transcription-quantitative PCR (RT-qPCR) as previously described (27-29). Reverse transcription was performed with 300 ng of total RNA and Maxima® First Strand cDNA Synthesis Kit (ThermoFisher Scientific, Pittsburgh, PA). The cDNA was then diluted 10-fold with RNase-free water prior to real-time PCR using QuantiTect SYBR® Green PCR Kit (Qiagen, Valencia, CA) in 10-μl reactions using primers specific for HDP, barrier function, and inflammatory cytokine genes as described (27, 29, 30). PCR was run in CFX Connect Real-Time PCR System (Bio-Rad, Hercules, CA) using the following program: 95° C. for 10 min, followed by 40 cycles of 94° C. for 15 sec, 55° C. for 20 sec, and 72° C. for 30 sec. The specificity of PCR reactions was confirmed by the melting curve analysis. The glyceraldehyde-3-phosphate dehydrogenase (GAPDH) gene was used as the reference for data normalization. The fold changes in gene expression in the cells treated with individual compounds or in combinations were calculated relative to the cells treated with an equal volume of RPMI 1640 or DMSO using the ΔΔCt method (31).

AvBD9 gene promoter = assay: HTC/AvBD9-luc luciferase reporter assay; conditions: for activation of the AvBD9 gene promoter (relative luciferase activity): compound alone, different concentrations, 24 h (FIG. 2, Panel A); for synergy in luciferase activity with butyrate: different concentrations in combination with 2 mM butyrate, 24 h (FIG. 3)
Protocol: Culture and stimulation of a stable HTC/AvBD9-luc luciferase reporter cell line. A stable HTC/AvBD9-luc cell line was generated by cloning a 2.0-Kb AvBD9 gene promoter fragment into a lentiviral luciferase reporter vector, pGreenFire1-mCMV-Puro (System Biosciences, Palo Alto, CA) and then transfected into HTC cells as previously described (22). The stable cell line was maintained in RPMI 1640 containing 10% heat-inactivated FBS, 100 U/ml penicillin, 100 μg/mL streptomycin, and 0.5 μg/mL puromycin and subcultured every 3-4 days. To measure transcriptional activation of the AvBD9 gene promoter in response to different epigenetic compounds, cells were seeded at 4×10^4 cells/well in white 96-well tissue culture plates and stimulated in duplicate with different compounds individually or in combination for 24 h. An equal amount of a solvent was applied as a negative control. Luciferase activity was measured using STEADY-GLO® Luciferase Assay System (Promega, Madison, WI) on an L-Max II luminescence microplate reader (Molecular Devices, Sunnyvale, CA). Cell viabilities were assessed by adding alamarBlue Reagent (ThermoFisher, Waltham, MA) to cell culture 4 h before luciferase assay. Relative luciferase activity was determined for each well after normalization to the cell viability as previously described (22).

AvBD4 = assay: RT-qPCR of AvBD4 in HD11 macrophages; conditions: HD11 cells, 5 μM compound with 2 mM butyrate, 24 h (FIG. 6, Panel C)
Protocol: (§3) Culture and stimulation of macrophages. Two different chicken macrophage cell lines, HTC (24) and HD11 (25), were kindly provided by Dr. Narayan C. Rath and Dr. Hyun Lillehoj of USDA-ARS and maintained in RPMI 1640 containing 10% heat-inactivated FBS, 100 U/ml penicillin, and 100 μg/ml streptomycin and subcultured every 3-4 days. After overnight seeding at 1.5×10^6 cells/well in 6-well cell culture plates, cells were treated with different concentrations of each compound for 24 h or with the indicated concentration of each compound for various lengths of time for dose-response and time-course experiments, respectively. […]
(§4) Total RNA extraction and gene expression analysis. […] Gene expression was performed using reverse transcription-quantitative PCR (RT-qPCR) as previously described (27-29). […] The cDNA was then diluted 10-fold with RNase-free water prior to real-time PCR using QuantiTect SYBR® Green PCR Kit (Qiagen, Valencia, CA) in 10-μl reactions using primers specific for HDP, barrier function, and inflammatory cytokine genes as described (27, 29, 30). […] The fold changes in gene expression in the cells treated with individual compounds or in combinations were calculated relative to the cells treated with an equal volume of RPMI 1640 or DMSO using the ΔΔCt method (31).

AvBD9 = assay: RT-qPCR of AvBD9 in HD11 macrophages; conditions: HD11 cells, 5 μM compound with 2 mM butyrate, 24 h (FIG. 6, Panel A)
Protocol: as §3, §4

CLDN1 = assay: RT-qPCR of CLDN1 (claudin 1) in HTC cells; conditions: 24 h (FIG. 8, Panel F)
Protocol: as §1, §2

AvBD10 = assay: RT-qPCR of AvBD10 in HD11 macrophages; conditions: HD11 cells, 5 μM compound with 2 mM butyrate, 24 h (FIG. 6, Panel D)
Protocol: as §3, §4

AvBD1 = assay: RT-qPCR of AvBD1 in HD11 macrophages; conditions: HD11 cells, 5 μM compound with 2 mM butyrate, 24 h (FIG. 6, Panel B)
Protocol: as §3, §4

IL-1β = assay: RT-qPCR of IL-1β in HTC cells with or without LPS
Protocol: as §1, §2

IL-8 = assay: RT-qPCR of IL-8 in HTC cells with or without LPS
Protocol: as §1, §2

For `COc1cc2c(cc1OCCCN1CCCC1)N=C(N)C21CCC1` [A-366], the “synergy in AvBD9 induction between HMTi and HDACi” value (AvBD9 mRNA expression) was “marked synergy”.

For `Nc1ncn([C@@H]2O[C@H](CO)[C@@H](O)[C@H]2O)c(=O)n1` [AZA, 5-azacytidine], the “induction of AvBD9 gene expression” value (AvBD9 mRNA expression; 5 μM compound alone) was 3 fold and the “increase in AvBD9 expression, combination with mocetinostat” value (AvBD9 mRNA expression) was 1,925 fold.

For `Cc1cc(Nc2ccc(NC(=O)c3ccc(Nc4ccnc5ccccc45)cc3)cc2)nc(N)n1` [SGI-1027], the “induction of AvBD9 gene expression” value (AvBD9 mRNA expression; 5 μM compound alone) was 4 fold, the “increase in AvBD9 expression, combination with mocetinostat” value (AvBD9 mRNA expression) was 747 fold and the “additional increase in AvBD9 of the butyrate combination over compound alone” value (AvBD9 mRNA expression; 10 µM compound + 2 mM butyrate versus 10 µM compound alone) was 8 fold. For the same compound, the “induction of AvBD9 mRNA expression” value (AvBD9 mRNA expression; 10 μM compound alone, 24 h (FIG. 2, Panel B)) was 51 fold, the AvBD9 expression augmented (AvBD9 mRNA expression; 10 µM compound alone, 24 h (FIG. 4, Panel C)) was 51 fold and the “AvBD9 induction when combined with butyrate” value (AvBD9 mRNA expression; 10 µM compound combined with 2 mM butyrate, 24 h (FIG. 4, Panel C)) was 411 fold. The “synergy with butyrate in AvBD9 mRNA expression” value (AvBD9 mRNA expression) was “concentration-dependent increase; also recorded: synergize”, the “activation of the AvBD9 gene promoter (relative luciferase activity)” value (AvBD9 gene promoter) was “weak activator” and the “synergy in luciferase activity with butyrate” value (AvBD9 gene promoter) was “no synergy”.

With `CCCc1cc(C)[nH]c(=O)c1CNC(=O)c1cc(-c2ccc(N3CCN(C(C)C)CC3)nc2)cc2c1cnn2C(C)C` [UNC1999] the “AvBD4 induction, combination with butyrate” value (AvBD4) was “synergistically induced, albeit at lower magnitudes”, the “synergy in AvBD9 induction with butyrate” value (AvBD9) was “drastic synergy” and the “CLDN1 induction, combination with mocetinostat” value (CLDN1; 5 μM UNC1999 + 2.5 μM mocetinostat) was “synergistically induced”. For the same compound, the “CLDN1 induction, combination with butyrate” value (CLDN1; 5 μM UNC1999 + 2 mM butyrate) was “synergistically induced”, the “AvBD10 induction, combination with butyrate” value (AvBD10) was “synergistically induced, albeit at lower magnitudes” and the “additional increase in AvBD9 expression of the butyrate combination over compound alone” value (AvBD9 mRNA expression; 20 μM compound + 2 mM butyrate versus 20 μM compound alone) was 14 fold. For the same compound, the “increase in AvBD9 mRNA expression” value (AvBD9 mRNA expression; 20 μM compound alone, 24 h (FIG. 2, Panel B), peak) was 259 fold, the “induction of AvBD9 expression” value (AvBD9 mRNA expression; 20 μM compound alone, 24 h (FIG. 4, Panels A, B)) was 324 fold and the “increase in AvBD9 expression, combination with butyrate” value (AvBD9 mRNA expression; 20 μM compound in combination with 2 mM butyrate, 24 h (FIG. 4, Panels A, B)) was 4,470 fold. For the same compound, the “synergy with butyrate in AvBD9 mRNA expression” value (AvBD9 mRNA expression) was “concentration-dependent increase”, the “synergy in AvBD9 induction between HMTi and HDACi” value (AvBD9 mRNA expression) was “marked synergy” and the “AvBD1 induction, combination with butyrate” value (AvBD1) was “synergistically induced, albeit at lower magnitudes”. The “activation of the AvBD9 gene promoter (relative luciferase activity)” value (AvBD9 gene promoter) was “concentration-dependent activation” and the “synergy in luciferase activity with butyrate” value (AvBD9 gene promoter) was “marked dose-dependent increase in the synergy”.

`CCCC(=O)[O-].[Na+]` [butyrate, Sodium butyrate] was tested, and the “effect on LPS-induced IL-1β expression” value (IL-1β; compound alone 24 h, then 10 ng/ml LPS 3 h (FIG. 8, Panel D)) was “suppressed”, the “activity in inducing gene expression of IL-1β” value (IL-1β; compound alone (2 mM butyrate or 5 μM BIX01294), without LPS (FIG. 8, Panel D)) was “no or weak activity” and the “effect on LPS-induced IL-8 expression” value (IL-8; compound alone 24 h, then 10 ng/ml LPS 3 h (FIG. 8, Panel E)) was “potentiated”. For the same compound, the “activity in inducing gene expression of IL-8” value (IL-8; compound alone (2 mM butyrate or 5 μM BIX01294), without LPS (FIG. 8, Panel E)) was “no or weak activity” and the “induction of AvBD9 expression” value (AvBD9 mRNA expression; 2 mM butyrate alone, 24 h (FIG. 4, Panel A)) was 27 fold.

`Nc1ccccc1NC(=O)c1ccc(CNc2nccc(-c3cccnc3)n2)cc1` [mocetinostat] was tested, and the “induction of AvBD9 gene expression” value (AvBD9 mRNA expression; 2.5 μM mocetinostat alone) was 152 fold.
